# Test results reported in ChEMBL document CHEMBL1143454, “Arylphthalazines: identification of a new phthalazine chemotype as inhibitors of VEGFR kinase” (Bioorg Med Chem Lett, 2005).
# Biological target: Vascular endothelial growth factor receptor 2 (Homo sapiens, UniProt P35968)
# Assay: Inhibition of Vascular endothelial growth factor receptor 2 kinase phosphorylation of pGAT-biotin peptide
# Chain of Vascular endothelial growth factor receptor 2 (P35968 whole entry): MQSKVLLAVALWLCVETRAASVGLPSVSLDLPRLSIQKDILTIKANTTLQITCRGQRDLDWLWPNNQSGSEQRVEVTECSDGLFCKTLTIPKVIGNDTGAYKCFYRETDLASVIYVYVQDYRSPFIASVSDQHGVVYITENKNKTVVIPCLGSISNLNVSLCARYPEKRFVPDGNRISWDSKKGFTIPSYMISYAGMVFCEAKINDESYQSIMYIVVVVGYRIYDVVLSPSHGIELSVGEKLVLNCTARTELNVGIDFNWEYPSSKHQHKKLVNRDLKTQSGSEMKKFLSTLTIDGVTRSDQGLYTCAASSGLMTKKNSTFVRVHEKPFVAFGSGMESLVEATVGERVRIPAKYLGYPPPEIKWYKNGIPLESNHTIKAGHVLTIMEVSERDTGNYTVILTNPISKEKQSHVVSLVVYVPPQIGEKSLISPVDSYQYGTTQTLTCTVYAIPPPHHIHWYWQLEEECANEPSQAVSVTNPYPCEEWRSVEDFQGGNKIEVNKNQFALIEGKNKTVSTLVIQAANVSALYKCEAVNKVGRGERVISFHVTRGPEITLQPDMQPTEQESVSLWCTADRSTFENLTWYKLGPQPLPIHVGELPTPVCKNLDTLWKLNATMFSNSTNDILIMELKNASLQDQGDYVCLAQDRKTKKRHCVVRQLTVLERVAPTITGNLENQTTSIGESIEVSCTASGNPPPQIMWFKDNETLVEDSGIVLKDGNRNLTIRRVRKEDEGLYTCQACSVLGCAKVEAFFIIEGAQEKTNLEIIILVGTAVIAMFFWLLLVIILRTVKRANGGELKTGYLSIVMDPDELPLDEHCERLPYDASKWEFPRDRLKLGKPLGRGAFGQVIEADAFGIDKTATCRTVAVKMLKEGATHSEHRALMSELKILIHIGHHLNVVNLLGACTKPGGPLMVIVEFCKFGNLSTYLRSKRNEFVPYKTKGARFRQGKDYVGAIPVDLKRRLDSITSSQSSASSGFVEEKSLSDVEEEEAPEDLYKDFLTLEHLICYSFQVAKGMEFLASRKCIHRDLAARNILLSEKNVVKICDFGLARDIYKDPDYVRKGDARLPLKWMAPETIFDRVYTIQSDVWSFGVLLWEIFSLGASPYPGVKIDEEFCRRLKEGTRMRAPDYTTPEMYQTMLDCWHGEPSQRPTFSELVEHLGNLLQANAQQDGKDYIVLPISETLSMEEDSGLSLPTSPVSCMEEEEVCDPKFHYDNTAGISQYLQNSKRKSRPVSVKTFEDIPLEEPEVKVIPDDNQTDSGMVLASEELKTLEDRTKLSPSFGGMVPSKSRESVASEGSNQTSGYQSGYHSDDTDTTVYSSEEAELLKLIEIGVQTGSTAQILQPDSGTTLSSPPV
row,SMILES,IC50
1,Cc1ccc(-c2nnc(Nc3ccc(OC(F)(F)Cl)cc3)c3ccccc23)cc1S(=O)(=O)NC(C)C,> 10 µM
2,COc1ccc(Nc2nnc(-c3ccc(C(N)=O)cc3)c3ccccc23)cc1,2 µM
3,O=C(NCCO)c1ccc(-c2nnc(Nc3ccc(OC(F)(F)Cl)cc3)c3ccccc23)cc1,1.1 µM
4,NC(=O)c1ccc(-c2nnc(Nc3ccc(S(N)(=O)=O)cc3)c3ccccc23)cc1,> 10 µM
5,CCOc1ccc(-c2nnc(Nc3ccc(C)cc3)c3ccccc23)cc1,> 10 µM
6,CC(C)(C)NC(=O)c1ccc(-c2nnc(Nc3ccc(OC(F)(F)Cl)cc3)c3ccccc23)cc1,> 10 µM

# Biological target: Vascular endothelial growth factor receptor 1 (Homo sapiens) (UniProt P17948)
# Assay: Percent inhibition of Vascular endothelial growth factor receptor 1 at 10 uM
# Chain of Vascular endothelial growth factor receptor 1 (Homo sapiens) (P17948 whole entry): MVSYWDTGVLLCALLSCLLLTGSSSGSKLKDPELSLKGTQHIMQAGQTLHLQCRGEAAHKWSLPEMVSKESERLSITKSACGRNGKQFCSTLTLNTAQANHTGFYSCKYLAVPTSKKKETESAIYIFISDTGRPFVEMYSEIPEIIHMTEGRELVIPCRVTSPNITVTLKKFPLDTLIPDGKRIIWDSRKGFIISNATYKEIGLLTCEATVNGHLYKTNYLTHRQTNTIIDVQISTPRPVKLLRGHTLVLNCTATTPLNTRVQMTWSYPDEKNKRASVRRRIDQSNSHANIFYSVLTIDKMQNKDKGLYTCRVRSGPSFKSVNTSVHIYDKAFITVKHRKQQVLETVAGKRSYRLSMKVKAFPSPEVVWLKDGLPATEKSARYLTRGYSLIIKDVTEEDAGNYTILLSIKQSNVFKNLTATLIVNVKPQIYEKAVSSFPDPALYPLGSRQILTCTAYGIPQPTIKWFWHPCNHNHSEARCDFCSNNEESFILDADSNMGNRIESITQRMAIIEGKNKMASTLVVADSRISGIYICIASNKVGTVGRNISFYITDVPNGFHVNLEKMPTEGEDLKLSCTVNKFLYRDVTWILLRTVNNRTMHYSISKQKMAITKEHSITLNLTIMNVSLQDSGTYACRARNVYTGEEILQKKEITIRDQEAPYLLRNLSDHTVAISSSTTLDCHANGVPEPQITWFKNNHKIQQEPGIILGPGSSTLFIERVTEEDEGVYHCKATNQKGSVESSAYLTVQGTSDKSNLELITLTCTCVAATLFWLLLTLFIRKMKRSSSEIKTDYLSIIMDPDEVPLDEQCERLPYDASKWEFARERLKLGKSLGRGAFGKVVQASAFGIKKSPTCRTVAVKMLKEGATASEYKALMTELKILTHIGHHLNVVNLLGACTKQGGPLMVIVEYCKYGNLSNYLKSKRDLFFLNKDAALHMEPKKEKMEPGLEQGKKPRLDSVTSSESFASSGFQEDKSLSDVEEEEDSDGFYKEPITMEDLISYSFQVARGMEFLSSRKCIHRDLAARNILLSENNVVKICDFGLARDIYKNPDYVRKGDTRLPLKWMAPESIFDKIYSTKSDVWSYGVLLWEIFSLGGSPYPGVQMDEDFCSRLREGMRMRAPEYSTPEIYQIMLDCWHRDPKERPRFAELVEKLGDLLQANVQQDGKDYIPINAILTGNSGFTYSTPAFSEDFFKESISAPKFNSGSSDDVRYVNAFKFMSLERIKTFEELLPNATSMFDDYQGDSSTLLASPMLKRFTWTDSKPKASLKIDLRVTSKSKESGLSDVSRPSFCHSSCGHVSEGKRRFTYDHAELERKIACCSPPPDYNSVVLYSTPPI
row,SMILES,inhibition
1,CC(C)(C)c1cccc(Nc2nnc(-c3ccc(C(N)=O)cc3)c3ccccc23)c1,60%
2,NC(=O)c1ccc(-c2nnc(Nc3cccc(Br)c3)c3ccccc23)cc1,51%
3,NC(=O)c1ccc(-c2nnc(Nc3ccc(Br)cc3)c3ccccc23)cc1,53%
4,CC(C)(C)c1ccc(Nc2nnc(-c3ccc(C(N)=O)cc3)c3ccccc23)cc1,73%
